Assay: Stability of 1.25 mM coelenterazine-h-h in 50% ethanol and 50% propylene glycol with or without 225 mM ATT, HPLC and Arrhenius plots
Assay type: physicochemical
Conditions: 225 mM ATT, over time at different temperatures
Protocol: The stability of coelenterazine-h-h in the presence and absence of ATT was measured over time at different temperatures. Specifically, 1.25 mM coelenterazine-h-h was present in a solution of 50% ethanol and 50% propylene glycol (i.e., the solution without ATT) or a solution of 50% ethanol and 50% propylene glycol with 225 mM ATT (i.e., the solution with ATT). These two solutions were incubated at −20° C., room temperature (RT), 40° C., or 60° C. and analyzed at 0 days, 1 day, 3 days, 7 days, 15 days, and 30 days.
Following incubation, high performance liquid chromatography (HPLC) was utilized to identify the components of the respective solutions at each time point. Specifically, an Agilent 1100 HPLC instrument was used and equipped with a quaternary pump, thermostatted autosampler and column compartment, and a G1311B diode-array detector. The column used was a Synergi-MAX-RP (Phenomenex, Torrance, Calif.) 100 AÅ 50×4.6 2.5 μm. The run on the HPLC was a gradient run with 0.1% TFA in water and acetonitrile. Absorbance was measured at 262 nanometers (nm). Standards of coelenterazine-h-h and its known degradants were run to confirm both the retention time and absorbance trace. 5 μl of each solution was injected and the retention time of coelenterazine-h-h at room temperature was 5.5 minutes.
The results of the HPLC analysis are shown below in Tables 7 and 8 and FIGS. 3A and 3B, in which the values are reported as relative peak area percentage at 262 nm (i.e., the lamba max of the substrate). […] In each of FIGS. 3A and 3B, diamond is 1.25 mM coelenterazine-h-h incubated over time with or without 225 mM ATT, respectively, at −20° C., triangle is 1.25 mM coelenterazine-h-h incubated over time with or without 225 mM ATT, respectively, at room temperature (RT), star is 1.25 mM coelenterazine-h-h incubated over time with or without 225 mM ATT, respectively, at 40° C., and cross is 1.25 mM coelenterazine-h-h incubated over time with or without 225 mM ATT, respectively, at 60° C.
From the HPLC analysis, the half-life of coelenterazine-h-h in the presence of ATT at 60° C. was calculated to be 10 days while the half-life of coelenterazine-h-h in the absence of ATT at 40° C. and 60° C. was calculated to be 27 days and 8 days, respectively (see Table 9 below).
Additionally, Arrhenius plots were generated for coelenterazine-h-h in the presence and absence of ATT to calculate the half-life of coelenterazine-h-h at various temperatures. The Arrhenius equation is as follows: […]
In FIG. 11, the slope was −10740.9, the intercept was 30.0575, and R^2 was 0.9967.
In FIG. 12, the […], and R^2 was 0.9648.

## Cc1n[nH]c(=S)[nH]c1=O [ATT, 6-methyl-3-thioxo-3,4-dihydro-1,2,4-triazin-5(2H)-one]
  stabilization of coelenterazine-h-h against decomposition: stabilized coelenterazine-h-h against decomposition over time at different temperatures

From patent US9676997B2, “Compositions and methods for stabilizing luminogenic substrates” (Promega Corporation, priority 2014, dated 2017)
